According to patent US12065445B2, “CDK2 inhibitors and methods of using the same” (Cedilla Therapeutics, Inc., priority 2021, dated 2024):

Test system: Kuramochi cells
Experiment: BrdU Cell Proliferation Assay
Type: cell-based
Details: read-out: BrdU - KURAMOCHI.1: IC50
Protocol: A BrdU assay was used as a measure of proliferation based on the DNA replication process of proliferating cells. BrdU, a pyrimidine analog, is added to the cell culture and incorporated into the DNA of proliferating cells. The presence of the BrdU analog was then measured through a colorimetric ELISA. After fixation and permeabilization of cells, peroxidase-conjugated antibody recognizing BrdU is added and allowed to incubate, followed by thorough washing to remove unbound antibody. In order to quantify the amount of bound antibody, peroxidase substrate is added and produces a color that can be measured at 450 nm.
On day −1, Kuramochi cells (Sekisui XenoTech JCRB0098) were seeded at 2,000 cells/well in columns 2-12 of a 96 well plate (Corning, CLS3596) in 150 μL media and allowed to adhere overnight at 37 degree with 5% CO2.
On day 0, the source plate was prepared by adding 10 mM compounds and performing 3-fold serial dilutions for a 10-point dose response of each compound. Using a multichannel pipette, 2 μL of the contents of the source plate were stamped into an intermediate plate with 500 μL of RPMI 1640 Media, GlutaMAX Supplement (Life Technologies, 61870127) in each well of a Nunc 96 DeepWell™ plate, non-treated 96 DeepWell plate, 2 mL/well, sterile, natural, 60/cs (Sigma Z717274) and mixed thoroughly. 50 μL from each well of this intermediate plate were added to 4 wells of a 96-well plate with previously seeded Kuramochi cells.
On day 4, the plates were developed using the BrdU ELISA Cell Proliferation Assay according to manufacturer's instructions (Roche, 11647229001). Briefly, BrdU was diluted 1:100 in Gibco®, OptiMEM® and 20 μL/well was added, shaken for 10 minutes at 350 rpm, and then returned to the incubator for 1 hour. Following incubation, the medium was discarded, and the cells were fixed by adding 200 μL of Fix/Denature solution. The anti-BrdU peroxidase antibody was diluted 1:1000 in OptiMEM, added at 100 μL/well, and incubated while shaking (350 rpm) for one hour. Three washes with PBS were performed to remove any unbound antibody, followed by the addition of 100 μL of substrate solution to each well. 25 μL/well of 1M sulfuric acid solution was then added to halt the reaction, and plates were read out using an Envision spectrophotometer (Perkin Elmer) set to read 450 nm absorbance. Background absorbance values from empty wells were subtracted from all samples and then normalized to DMSO treated wells.

Compound | IC50 [µM]
CNC(=O)[C@@H](NC(=O)[C@@H]1CN(C(=O)c2cnn(CC3CCOCC3)c2)CC12CN(C(=O)[C@H]1CC1(C)C)C2)[C@@H](C)OCC1CCCCC1 [I-121A] | 5 to 10
CC1(C)C[C@@H]1C(=O)N1CC2(CN(C(=O)c3cnn(Cc4ccccc4)c3)C[C@H]2C(=O)N2CCC(Cc3ccccc3)CC2)C1 [I-58A] | > 10
CC1(C)C[C@@H]1C(=O)N1CC2(CN(C(=O)c3cnn(Cc4ccccc4)c3)C[C@@H]2C(=O)Nc2cccc(-c3ccccc3)c2)C1 [I-63B] | > 10
CC1(C)C[C@@H]1C(=O)N1CC2(CN(C(=O)c3cnn(Cc4ccccc4)c3)C[C@H]2C(=O)Nc2cccc(-c3ccccc3)c2)C1 [I-63A] | 5 to 10
C[C@@H](OCC1CCCCC1)[C@H](NC(=O)C1CN(C(=O)C2CCC(=O)N(C)C2)CC12CN(C(=O)[C@H]1CC1(C)C)C2)C(=O)N1CCCCC1 (stereo partly drawn) [I-242] | > 10
CNC(=O)[C@@H](NC(=O)[C@@H]1CN(C(=O)c2cnn(Cc3ccccc3)c2)CC12CN(C(=O)[C@H]1CC1(C)C)C2)[C@@H](C)OCc1cccnc1 [I-247] | > 10
CNC(=O)[C@@H](NC(=O)[C@H]1CN(Cc2cnc[nH]2)CC12CN(C(=O)[C@H]1CC1(C)C)C2)[C@@H](C)OCc1ccccc1 [I-77B] | > 10
CC1(C)C[C@@H]1C(=O)N1CC2(CN(C(=O)c3cnn(Cc4ccccc4)c3)C[C@H]2C(=O)N[C@H]2CCc3cc(Cl)ccc32)C1 [I-120A] | > 10
CNC(=O)[C@@H](NC(=O)[C@H]1CN(C(=O)c2cnn(Cc3ccccc3)c2)CC12CN(C(=O)c1ccccc1)C2)[C@@H](C)OCc1ccccc1 [I-26B] | > 10
CNC(=O)[C@@H](NC(=O)[C@H]1CN(C(=O)c2cnn(Cc3ccccc3)c2)CC12CN(C(=O)CC(F)(F)F)C2)[C@@H](C)OCc1ccccc1 [I-87B] | > 10
CNC(=O)[C@@H](NC(=O)[C@@H]1CN(C(=O)c2cnn(Cc3ccccc3)c2)CC12CN(C(=O)CC1CCC1)C2)[C@@H](C)OCc1ccccc1 [I-27A] | > 10
CC(C)O[C@H]1C[C@H](NC(=O)[C@@H]2CN(C(=O)c3cnn(Cc4ccccc4)c3)CC23CN(C(=O)[C@H]2CC2(C)C)C3)C1 [I-233] | > 10
CC1(C)C[C@@H]1C(=O)N1CC2(CN(C(=O)c3cnn(Cc4ccccc4)c3)C[C@@H]2C(=O)N[C@H]2CCCN(C(=O)c3ccccc3)C2)C1 [I-83B] | > 10
CNC(=O)[C@@H](NC(=O)[C@@H]1CN(C(=O)c2cnn(Cc3ccccc3)c2)CC12CN(C(=O)CC(C)(C)C)C2)[C@@H](C)OCc1ccccc1 [I-62A] | > 10
CC1(C)C[C@@H]1C(=O)N1CC2(CN(C(=O)c3cnn(Cc4ccccc4)c3)C[C@H]2C(=O)NC2CCNC(=O)C2)C1 (stereo partly drawn) [I-223] | > 10
CC1(C)C[C@@H]1C(=O)N1CC2(CN(C(=O)c3cnn(Cc4ccccc4)c3)C[C@H]2C(=O)N2CCCC(Cc3ccccc3)C2)C1 (stereo partly drawn) [I-91A] | > 10
CNC(=O)[C@@H](NC(=O)[C@@H]1CN(C(=O)c2cnc(C(F)(F)F)s2)CC12CN(C(=O)[C@H]1CC1(C)C)C2)[C@@H](C)OCC1CCCCC1 [I-161A] | > 10
CNC(=O)[C@@H](NC(=O)[C@H]1CN(Cc2cnn(Cc3ccccc3)c2)CC12CN(C(=O)[C@H]1CC1(C)C)C2)[C@@H](C)OCc1ccccc1 [I-16B] | > 10
CNC(=O)[C@@H](NC(=O)[C@@H]1CN(Cc2cnco2)CC12CN(C(=O)[C@H]1CC1(C)C)C2)[C@@H](C)OCc1ccccc1 [I-78A, (S)—N-((2S,3R)-3-(benzyloxy)-1-(methylamino)-1-oxobutan-2-yl)-2-((S)-2,2-dimethylcyclopropane-1-carbonyl)-6-(oxazol-5-ylmethyl)-2,6-diazaspiro[3.4]octane-8-carboxamide] | > 10
CC1(C)C[C@@H]1C(=O)N1CC2(CN(C(=O)c3cnn(Cc4ccccc4)c3)C[C@@H]2C(=O)N[C@H]2CCc3cc(Cl)ccc32)C1 [I-120B] | > 10
C[C@@H](OCc1ccccc1)[C@H](NC(=O)C1CN(C(=O)c2cnn(Cc3ccccc3)c2)CC12CN(C(=O)[C@H]1CC1(C)C)C2)C(=O)N1CC2(CCC2)C1 (stereo partly drawn) [I-106] | 0.5 to 5
CNC(=O)[C@@H](NC(=O)[C@H]1CN(C(=O)c2cnn(Cc3ccccc3)c2)CC12CN(C(=O)CC1CCC1)C2)[C@@H](C)OCc1ccccc1 [I-27B] | > 10
CNC(=O)[C@@H](NC(=O)[C@H]1CN(C(=O)c2cnn(Cc3ccccc3)c2)CC12CN(C(=O)C1(CCOC)CC1)C2)[C@@H](C)OCc1ccccc1 [I-102B] | > 10

Compound | IC50 [µM]
C[C@@H](OCC1CCCCC1)[C@H](NC(=O)[C@@H]1CN(C(=O)c2cnn(Cc3ccccc3)c2)CC12CN(C(=O)[C@H]1CC1(C)C)C2)C(=O)N1CCC[C@@H](N)C1 [I-218] | 5 to 10
CNC(=O)[C@@H](NC(=O)[C@H]1CN(C(=O)c2cncs2)CC12CN(C(=O)CC1CC1)C2)[C@@H](C)OCC1CCCCC1 [I-103B] | > 10
CNC(=O)[C@@H](NC(=O)[C@H]1CN(C(=O)c2cnn(Cc3ccc(F)cc3)c2)CC12CN(C(=O)[C@H]1CC1(C)C)C2)[C@@H](C)OCC1CCC(F)(F)CC1 [I-167] | > 10
CCCCC1CC1C(=O)N1CC2(CN(C(=O)c3cnn(Cc4ccccc4)c3)C[C@@H]2C(=O)N[C@H](C(=O)NC)[C@@H](C)OCc2ccccc2)C1 (stereo partly drawn) [I-94B] | > 10
CNC(=O)[C@@H](NC(=O)[C@@H]1CN(Cc2cnn(C)c2)CC12CN(C(=O)[C@H]1CC1(C)C)C2)[C@@H](C)OCc1ccccc1 [I-47A] | > 10
COCCNC(=O)[C@H]1CN(C(=O)c2cnn(Cc3ccccc3)c2)CC12CN(C(=O)[C@H]1CC1(C)C)C2 [I-122B] | > 10
CC1(C)C[C@@H]1C(=O)N1CC2(CN(C(=O)c3cnn(Cc4ccccc4)c3)C[C@H]2C(=O)N2CC[C@@H](OCC3CCCCC3)C2)C1 [I-235] | > 10
CNC(=O)[C@@H](NC(=O)[C@@H]1CN(C(=O)c2cnn(CC(F)(F)F)c2)CC12CN(C(=O)CC1CC1)C2)[C@@H](C)OCc1ccccc1 [I-43A] | > 10
CC1(C)C[C@@H]1C(=O)N1CC2(CN(C(=O)c3cnn(Cc4ccccc4)c3)C[C@H]2C(=O)N[C@@H]2CCCN(C(=O)C3CCCCC3)C2)C1 [I-215] | > 10
CC1(C)C[C@@H]1C(=O)N1CC2(CN(C(=O)c3cnn(Cc4ccccc4)c3)C[C@H]2C(=O)NC2CCCN(C(=O)c3ccccc3)C2)C1 (stereo partly drawn) [I-59A] | > 10
CC1(C)C[C@@H]1C(=O)N1CC2(CN(C(=O)c3cnn(Cc4ccccc4)c3)C[C@H]2C(=O)Nc2cccc(Cc3ccccc3)c2)C1 [I-75A] | 0.5 to 5
CNC(=O)[C@@H](NC(=O)[C@H]1CN(C(=O)c2cnn(Cc3ccccc3)c2)CC12CN(C(=O)[C@H]1CC1(C)C)C2)[C@@H](C)OCC1(C(F)(F)F)CC1 [I-205B] | > 10
CC1(C)C[C@@H]1C(=O)N1CC2(CN(C(=O)c3cnn(Cc4ccccc4)c3)C[C@H]2C(=O)N[C@H]2CCc3cc(Cl)ccc32)C1 [I-133A] | > 10
CNC(=O)[C@@H](NC(=O)[C@H]1CN(C(=O)c2cnn(Cc3ccccc3)c2)CC12CN(C(=O)C(C)(C)C)C2)[C@@H](C)OCC1CCCCC1 [I-174B] | > 10
C[C@@H](OCc1ccccc1)[C@H](NC(=O)C1CN(C(=O)c2cnn(Cc3ccccc3)c2)CC12CN(C(=O)[C@H]1CC1(C)C)C2)C(=O)N1CCCC(CO)C1 (stereo partly drawn) [I-98] | > 10
CNC(=O)[C@@H](NC(=O)[C@@H]1CN(C(=O)c2cnn(CC3CCN(C)CC3)c2)CC12CN(C(=O)[C@H]1CC1(C)C)C2)[C@@H](C)OCc1ccccc1 [I-23A] | > 10
CNC(=O)[C@@H](NC(=O)[C@H]1CN(C(=O)c2scnc2Cl)CC12CN(C(=O)[C@H]1CC1(C)C)C2)[C@@H](C)OCC1CCCCC1 [I-157B] | > 10
CNC(=O)[C@H](CSCc1ccccc1)NC(=O)[C@@H]1CN(C(=O)c2cnn(Cc3ccccc3)c2)CC12CN(C(=O)[C@H]1CC1(C)C)C2 [I-225] | > 10
CNC(=O)[C@@H](NC(=O)[C@@H]1CN(C(=O)c2cnn(Cc3ccccc3)c2)CC12CN(C(=O)C1(CCF)CC1)C2)[C@@H](C)OCc1ccccc1 [I-117A] | > 10
CNC(=O)[C@@H](NC(=O)[C@@H]1CN(C(=O)C2CCNC2)CC12CN(C(=O)[C@H]1CC1(C)C)C2)[C@@H](C)OCc1ccccc1 (stereo partly drawn) [I-70A, (8S)—N-((2S,3R)-3-(benzyloxy)-1-(methylamino)-1-oxobutan-2-yl)-2-((S)-2,2-dimethylcyclopropane-1-carbonyl)-6-(pyrrolidine-3-carbonyl)-2,6-diazaspiro[3.4]octane-8-carboxamide] | > 10
CNC(=O)[C@@H](NC(=O)[C@@H]1CN(C(=O)c2cnc[nH]2)CC12CN(C(=O)[C@H]1CC1(C)C)C2)[C@@H](C)OCc1ccccc1 [I-44A] | > 10
CNC(=O)[C@@H](NC(=O)[C@H]1CN(C(=O)c2cnn(Cc3ccccc3)c2)CC12CN(C(=O)CC1CC1)C2)[C@@H](C)OCC1CCCCC1 [I-56B] | > 10
